Test results reported in ChEMBL document CHEMBL1201862, “PubChem BioAssay data set” (2004).
Blank lines part the entries; values can stand above or below the molecule they belong to. The source made the active and inactive calls. Unless noted, the calls are words filed in the database; no cut-off is given here.

Experiments:
[1] = cytotoxicity in HEK-293T cells, dose response, cytotoxicity control for BCR NF-kB inhibitor project, luminescence, B-cell screen hits (AID 489021); type: functional, cell-based;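 further: HEK-293T cells carrying an NF-kB luciferase reporter; cells exposed to compound for about 14 hours before viability readout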
[2] = biological target: G-protein coupled receptor 35 (Homo sapiens, UniProt Q9HC97); assay: GPR35 antagonists blocking zaprinast-driven arrestin recruitment, primary screen, imaging, U2OS, beta-arrestin-GFP, zaprinast agonist (AID 2058); type: functional;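 further: antagonist potency meaning inhibition of agonist-induced arrestin redistribution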
[3] = biological target: E3 ubiquitin-protein ligase Mdm2/Protein Mdm4 (Homo sapiens, UniProt O15151+Q00987); assay: Mdm2-MdmX interaction inhibitors, dose response, luminescence detection (AID 504593); type: functional
E3 ubiquitin-protein ligase Mdm2/Protein Mdm4, sequence (Q00987 whole entry): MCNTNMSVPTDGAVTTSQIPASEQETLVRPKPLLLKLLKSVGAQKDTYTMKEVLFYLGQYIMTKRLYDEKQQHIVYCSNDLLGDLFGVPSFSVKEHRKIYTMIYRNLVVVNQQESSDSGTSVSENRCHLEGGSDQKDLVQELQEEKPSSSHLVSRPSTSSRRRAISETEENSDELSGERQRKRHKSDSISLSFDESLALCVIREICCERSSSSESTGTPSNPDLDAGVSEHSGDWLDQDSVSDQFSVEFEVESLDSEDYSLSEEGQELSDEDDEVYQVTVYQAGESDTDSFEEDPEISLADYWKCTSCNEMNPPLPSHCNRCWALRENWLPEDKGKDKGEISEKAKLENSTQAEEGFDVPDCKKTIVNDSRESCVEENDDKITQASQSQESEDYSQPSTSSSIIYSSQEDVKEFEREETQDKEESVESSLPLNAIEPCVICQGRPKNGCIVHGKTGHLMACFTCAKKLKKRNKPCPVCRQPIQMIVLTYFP
E3 ubiquitin-protein ligase Mdm2/Protein Mdm4, sequence (O15151 whole entry): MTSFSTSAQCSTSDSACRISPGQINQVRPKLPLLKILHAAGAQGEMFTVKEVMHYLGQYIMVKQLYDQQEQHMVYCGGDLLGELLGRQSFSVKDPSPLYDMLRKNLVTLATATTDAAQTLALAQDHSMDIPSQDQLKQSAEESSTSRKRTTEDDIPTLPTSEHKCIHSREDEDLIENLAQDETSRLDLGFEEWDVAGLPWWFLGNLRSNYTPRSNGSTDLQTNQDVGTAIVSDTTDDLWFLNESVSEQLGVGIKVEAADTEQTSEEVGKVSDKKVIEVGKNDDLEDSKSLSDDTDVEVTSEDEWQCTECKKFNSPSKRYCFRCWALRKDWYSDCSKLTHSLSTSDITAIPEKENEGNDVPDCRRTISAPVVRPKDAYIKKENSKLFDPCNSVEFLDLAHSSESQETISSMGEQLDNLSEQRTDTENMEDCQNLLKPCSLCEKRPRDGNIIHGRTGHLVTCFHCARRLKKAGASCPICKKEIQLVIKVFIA

[4] = biological target: T1, Heat shock factor protein 1 (Mus musculus, UniProt P38532); assay: HSF1 potentiators in luciferase reporter cells, confirmation, cell-based, NIH3T3, luminescence, dose retest (AID 435004); type: functional;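 further: stress induced by proteasome inhibitor MG132 added 30 min after compound; luciferase reporter driven by HSF1 response element in NIH3T3 cells; actives raise luminescence as potentiators of the MG132 stress response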
T1 sequence (P38532 whole entry): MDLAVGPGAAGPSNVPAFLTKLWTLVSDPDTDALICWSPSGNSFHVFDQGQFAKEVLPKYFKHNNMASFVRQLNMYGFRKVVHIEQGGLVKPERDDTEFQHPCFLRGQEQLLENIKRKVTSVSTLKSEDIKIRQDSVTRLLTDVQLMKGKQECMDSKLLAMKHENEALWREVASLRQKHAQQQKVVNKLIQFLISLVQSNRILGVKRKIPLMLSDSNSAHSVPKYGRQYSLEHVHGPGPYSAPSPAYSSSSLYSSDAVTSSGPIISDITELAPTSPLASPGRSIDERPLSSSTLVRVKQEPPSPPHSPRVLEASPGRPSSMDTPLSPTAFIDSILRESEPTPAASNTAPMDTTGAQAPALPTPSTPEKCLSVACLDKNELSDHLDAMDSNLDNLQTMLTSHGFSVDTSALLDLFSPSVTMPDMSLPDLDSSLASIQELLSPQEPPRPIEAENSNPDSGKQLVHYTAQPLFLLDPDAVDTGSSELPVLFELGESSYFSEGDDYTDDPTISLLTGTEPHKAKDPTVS

[5] = Shn3 3'UTR reporter inhibitors, dose response, cell-based, Clone20 osteoblasts, firefly luciferase, cherry-picked (AID 624132); type: functional;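 further: firefly luciferase luminescence from reporter carrying the Shn3 3'UTR in osteoblasts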
[6] = HepG2 cell cytotoxicity, dose response, cytotoxicity control for Shn3 inhibitor project, CellTiter-Glo, cherry-picked (AID 624134); type: functional, cell-based
[7] = control 3'UTR Renilla luciferase suppression, dose response, counter-screen for Shn3 inhibitor project, cell-based, Clone20-Shn3RL, cherry-picked (AID 624133); type: functional
Protein Rev = Protein Rev (Human immunodeficiency virus type 1 group M subtype B (isolate HXB2)(HIV-1), UniProt P04618); assay: inhibitors of Rev binding to RRE RNA, dose response, biochemical, fluorescence polarization, HIV-1 (AID 434976); design: species or system Human immunodeficiency virus 1
[8] = biological target: Female germline-specific tumor suppressor gld-1 (Caenorhabditis elegans, UniProt Q17339); assay: inhibitors of GLD-1 binding to TGE RNA, dose response, biochemical, fluorescence polarization, C. elegans (AID 2802);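 further: fluorescence polarization of labeled TGE RNA bound by purified gld-1 protein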
[9] = inhibition of ADP-Glo detection reagents, dose response, artefact control for CDK5 inhibitor project, biochemical, luminescence, cherry-picked samples, set 2 (AID 504546); type: functional
[10] = biological target: Cyclin-dependent kinase 5/CDK5 activator 1 (Homo sapiens, UniProt Q00535); assay: CDK5/p35 kinase inhibitors, dose response, biochemical, cherry-picked samples, set 2 (AID 504545)
Tumor necrosis factor = Tumor necrosis factor (Homo sapiens, UniProt P01375); assay: TNFa-triggered NF-kB activation inhibitors, SAR follow-up, cell-based, revised (AID 2337); type: functional
Tumor necrosis factor, sequence (P01375 whole entry, the tested form may be a part): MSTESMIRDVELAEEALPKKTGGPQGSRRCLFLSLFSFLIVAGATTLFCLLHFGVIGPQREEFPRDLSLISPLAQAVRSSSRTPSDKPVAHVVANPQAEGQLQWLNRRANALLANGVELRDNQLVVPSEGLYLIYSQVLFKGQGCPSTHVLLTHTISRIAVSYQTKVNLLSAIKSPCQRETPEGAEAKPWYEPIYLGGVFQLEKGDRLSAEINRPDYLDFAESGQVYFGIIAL

[11] = biological target: Nucleotide-binding oligomerization domain-containing protein 1 (Homo sapiens, UniProt Q9Y239); assay: NOD1 signaling inhibitors, SAR follow-up, revised (AID 2333); type: functional
[12] = biological target: Nucleotide-binding oligomerization domain-containing protein 2 (Homo sapiens, UniProt Q9HC29); assay: PubChem AID 2334; type: functional
Nucleotide-binding oligomerization domain-containing protein 2, sequence (Q9HC29 whole entry, the tested form may be a part): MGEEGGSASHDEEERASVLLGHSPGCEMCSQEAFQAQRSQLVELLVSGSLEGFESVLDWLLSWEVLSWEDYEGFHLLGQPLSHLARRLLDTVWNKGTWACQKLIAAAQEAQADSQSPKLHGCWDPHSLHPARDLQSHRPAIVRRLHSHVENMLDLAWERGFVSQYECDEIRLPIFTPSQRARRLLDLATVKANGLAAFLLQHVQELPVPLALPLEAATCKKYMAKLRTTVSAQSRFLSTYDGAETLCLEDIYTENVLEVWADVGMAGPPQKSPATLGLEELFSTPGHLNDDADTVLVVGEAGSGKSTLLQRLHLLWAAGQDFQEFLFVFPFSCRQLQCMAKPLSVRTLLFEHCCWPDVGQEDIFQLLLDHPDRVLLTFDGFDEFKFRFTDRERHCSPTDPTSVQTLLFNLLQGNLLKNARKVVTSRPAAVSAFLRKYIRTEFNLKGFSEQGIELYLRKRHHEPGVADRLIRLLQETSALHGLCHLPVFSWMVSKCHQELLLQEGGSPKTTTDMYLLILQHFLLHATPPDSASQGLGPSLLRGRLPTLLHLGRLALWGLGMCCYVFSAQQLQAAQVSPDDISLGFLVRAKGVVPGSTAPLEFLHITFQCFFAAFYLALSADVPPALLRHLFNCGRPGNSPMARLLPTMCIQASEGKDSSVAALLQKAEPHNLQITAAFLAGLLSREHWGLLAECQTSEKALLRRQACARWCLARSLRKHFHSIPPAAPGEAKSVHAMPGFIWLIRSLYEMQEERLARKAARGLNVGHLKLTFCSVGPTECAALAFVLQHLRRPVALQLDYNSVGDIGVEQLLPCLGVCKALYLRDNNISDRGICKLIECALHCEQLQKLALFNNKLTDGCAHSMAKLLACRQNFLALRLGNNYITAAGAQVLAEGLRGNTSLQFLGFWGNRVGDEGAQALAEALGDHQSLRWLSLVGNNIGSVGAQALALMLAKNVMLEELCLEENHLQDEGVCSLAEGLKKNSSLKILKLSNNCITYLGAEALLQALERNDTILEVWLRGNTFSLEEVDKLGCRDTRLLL

HEK293 = assay: cells; details: Homo sapiens;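 further: cells exposed to compound for 14 hours overnight before viability readout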
[13] = HEp-2 cell cytotoxicity, dose response, cytotoxicity control for RSV inhibitor project, HTS (AID 2410); type: functional; details: human respiratory syncytial virus
[14] = biological target: Lysosomal acid glucosylceramidase (Homo sapiens, UniProt P04062); assay: Dose response cell-based high throughput screening assay to identify enhancers of beta-glucosidase activity. [Related pubchem assays: 784 ]; type: functional
HT-29 = assay: Late-stage luminescence-based cell-based dose response assay to identify inhibitors of NADPH oxidase 1 (NOX1): Cytotoxicity assay 2.; type: functional; details: Homo sapiens
[15] = biological target: Alpha-2C adrenergic receptor (Homo sapiens, UniProt P18825); assay: Late-stage radioligand binding dose response assay to identify inhibitors of NADPH oxidase 1 (NOX1): PDSP screen Ki Set 2. [Related pubchem assays (depositor defined):AID1792, AID1796, AID1823, AID2532, AID2538, AID2539, AID2541, AID2545, AID2556, AID2664, AID2752, AID2773, AID2808, AID2819, AID434953, AID434974, AID434992, AID434993, AID434997 …
Alpha-2C adrenergic receptor, sequence (P18825 whole entry): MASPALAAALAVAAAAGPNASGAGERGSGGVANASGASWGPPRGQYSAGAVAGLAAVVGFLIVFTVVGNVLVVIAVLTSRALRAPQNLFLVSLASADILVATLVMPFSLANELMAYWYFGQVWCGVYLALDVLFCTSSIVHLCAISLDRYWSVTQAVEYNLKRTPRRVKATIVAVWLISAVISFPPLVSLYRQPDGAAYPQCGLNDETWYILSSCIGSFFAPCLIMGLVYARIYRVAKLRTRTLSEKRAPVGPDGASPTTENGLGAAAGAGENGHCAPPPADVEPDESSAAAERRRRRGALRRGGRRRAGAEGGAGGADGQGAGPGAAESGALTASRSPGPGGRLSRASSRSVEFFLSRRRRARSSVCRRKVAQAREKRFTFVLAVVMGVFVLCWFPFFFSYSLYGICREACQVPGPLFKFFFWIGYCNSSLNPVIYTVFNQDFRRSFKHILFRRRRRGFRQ

[16] = biological target: 5-hydroxytryptamine receptor 2B (Homo sapiens, UniProt P41595); assay: as above
[17] = biological target: Kappa-type opioid receptor (Homo sapiens, UniProt P41145); assay: as above
Kappa-type opioid receptor, sequence (P41145 whole entry): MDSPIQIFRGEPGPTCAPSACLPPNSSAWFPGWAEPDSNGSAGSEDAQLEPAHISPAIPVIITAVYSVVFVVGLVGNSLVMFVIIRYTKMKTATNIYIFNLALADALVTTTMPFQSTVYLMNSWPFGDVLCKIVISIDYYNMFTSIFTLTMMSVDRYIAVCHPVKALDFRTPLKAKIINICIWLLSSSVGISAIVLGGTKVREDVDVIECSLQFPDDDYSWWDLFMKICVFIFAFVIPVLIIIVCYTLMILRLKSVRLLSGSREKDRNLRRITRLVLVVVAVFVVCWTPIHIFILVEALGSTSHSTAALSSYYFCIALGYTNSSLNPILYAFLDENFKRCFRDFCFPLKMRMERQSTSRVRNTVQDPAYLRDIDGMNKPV

D(3) dopamine receptor = D(3) dopamine receptor (Homo sapiens, UniProt P35462); assay: as above
[18] = biological target: Muscarinic acetylcholine receptor M1 (Homo sapiens, UniProt P11229); assay: as above
Muscarinic acetylcholine receptor M1, sequence (P11229 whole entry): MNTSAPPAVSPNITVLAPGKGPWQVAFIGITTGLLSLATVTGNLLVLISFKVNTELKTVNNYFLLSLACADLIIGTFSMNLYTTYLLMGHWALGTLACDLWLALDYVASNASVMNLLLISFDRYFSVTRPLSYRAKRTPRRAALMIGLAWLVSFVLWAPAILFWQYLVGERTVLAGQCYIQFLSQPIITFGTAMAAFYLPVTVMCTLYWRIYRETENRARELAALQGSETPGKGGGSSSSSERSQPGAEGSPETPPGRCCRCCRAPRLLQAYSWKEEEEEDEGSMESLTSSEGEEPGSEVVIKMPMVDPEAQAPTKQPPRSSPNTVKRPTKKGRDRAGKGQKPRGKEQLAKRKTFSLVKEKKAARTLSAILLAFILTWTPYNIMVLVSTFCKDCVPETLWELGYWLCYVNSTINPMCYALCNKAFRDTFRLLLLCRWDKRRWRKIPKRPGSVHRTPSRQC

[19] = biological target: Alpha-2B adrenergic receptor (Homo sapiens, UniProt P18089); assay: as above
[20] = biological target: Muscarinic acetylcholine receptor M2 (Homo sapiens, UniProt P08172); assay: as above
[21] = biological target: Alpha-2A adrenergic receptor (Homo sapiens, UniProt P08913); assay: as above
Alpha-2A adrenergic receptor, sequence (P08913 whole entry): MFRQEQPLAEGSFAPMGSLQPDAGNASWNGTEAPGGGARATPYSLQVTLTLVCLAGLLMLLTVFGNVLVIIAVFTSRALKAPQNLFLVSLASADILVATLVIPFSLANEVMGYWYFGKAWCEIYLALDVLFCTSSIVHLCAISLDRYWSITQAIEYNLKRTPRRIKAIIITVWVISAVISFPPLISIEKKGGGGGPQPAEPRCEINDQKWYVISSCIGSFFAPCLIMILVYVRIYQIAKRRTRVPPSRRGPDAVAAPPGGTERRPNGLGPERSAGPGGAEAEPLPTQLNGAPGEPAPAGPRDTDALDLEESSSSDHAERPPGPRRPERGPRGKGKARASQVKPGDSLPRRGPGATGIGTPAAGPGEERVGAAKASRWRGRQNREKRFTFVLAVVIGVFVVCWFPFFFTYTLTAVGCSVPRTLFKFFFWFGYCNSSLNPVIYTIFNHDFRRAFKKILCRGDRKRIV

[22] = biological target: T2, Rac GTPase-activating protein 1 (Homo sapiens, UniProt Q9H0H5); assay: MgcRacGAP GTPase-activating activity inhibitors, confirmation, biochemical, ADP Hunter fluorescence, primary and confirmatory (AID 624330); type: functional
T2 sequence (Q9H0H5 whole entry): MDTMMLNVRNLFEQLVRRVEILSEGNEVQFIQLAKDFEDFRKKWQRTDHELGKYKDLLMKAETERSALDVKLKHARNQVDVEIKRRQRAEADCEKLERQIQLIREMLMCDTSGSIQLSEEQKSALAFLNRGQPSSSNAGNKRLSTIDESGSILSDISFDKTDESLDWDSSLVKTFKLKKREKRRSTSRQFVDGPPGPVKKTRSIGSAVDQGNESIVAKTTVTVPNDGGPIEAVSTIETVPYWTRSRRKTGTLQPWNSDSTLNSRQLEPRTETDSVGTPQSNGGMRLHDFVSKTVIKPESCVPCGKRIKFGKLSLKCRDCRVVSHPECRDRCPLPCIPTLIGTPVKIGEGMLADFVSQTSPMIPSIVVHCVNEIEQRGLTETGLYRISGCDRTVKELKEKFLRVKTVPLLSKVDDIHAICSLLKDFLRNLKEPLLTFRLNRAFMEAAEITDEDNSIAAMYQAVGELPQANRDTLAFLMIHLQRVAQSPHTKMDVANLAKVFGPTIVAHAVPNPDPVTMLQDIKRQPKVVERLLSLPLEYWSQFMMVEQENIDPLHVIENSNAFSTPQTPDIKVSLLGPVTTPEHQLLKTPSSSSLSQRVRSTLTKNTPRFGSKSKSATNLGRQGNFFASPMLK

[23] = biological target: Glyceraldehyde-3-phosphate dehydrogenase (Homo sapiens, UniProt P04406)
Glyceraldehyde-3-phosphate dehydrogenase, sequence (P04406 whole entry): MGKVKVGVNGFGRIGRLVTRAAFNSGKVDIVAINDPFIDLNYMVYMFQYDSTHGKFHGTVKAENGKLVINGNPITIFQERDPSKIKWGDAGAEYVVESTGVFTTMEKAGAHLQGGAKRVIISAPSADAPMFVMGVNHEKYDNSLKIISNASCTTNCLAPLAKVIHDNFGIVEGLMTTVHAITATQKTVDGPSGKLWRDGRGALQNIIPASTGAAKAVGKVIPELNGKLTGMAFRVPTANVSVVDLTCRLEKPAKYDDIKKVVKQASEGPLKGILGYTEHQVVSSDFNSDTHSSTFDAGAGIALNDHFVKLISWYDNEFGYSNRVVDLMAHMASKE

[24] = biological target: Alkaline phosphatase, placental type (Homo sapiens, UniProt P05187); assay: PLAP enzyme inhibitors, confirmation, biochemical, luminescence (AID 1512); type: functional
Alkaline phosphatase, placental type, sequence (P05187 whole entry): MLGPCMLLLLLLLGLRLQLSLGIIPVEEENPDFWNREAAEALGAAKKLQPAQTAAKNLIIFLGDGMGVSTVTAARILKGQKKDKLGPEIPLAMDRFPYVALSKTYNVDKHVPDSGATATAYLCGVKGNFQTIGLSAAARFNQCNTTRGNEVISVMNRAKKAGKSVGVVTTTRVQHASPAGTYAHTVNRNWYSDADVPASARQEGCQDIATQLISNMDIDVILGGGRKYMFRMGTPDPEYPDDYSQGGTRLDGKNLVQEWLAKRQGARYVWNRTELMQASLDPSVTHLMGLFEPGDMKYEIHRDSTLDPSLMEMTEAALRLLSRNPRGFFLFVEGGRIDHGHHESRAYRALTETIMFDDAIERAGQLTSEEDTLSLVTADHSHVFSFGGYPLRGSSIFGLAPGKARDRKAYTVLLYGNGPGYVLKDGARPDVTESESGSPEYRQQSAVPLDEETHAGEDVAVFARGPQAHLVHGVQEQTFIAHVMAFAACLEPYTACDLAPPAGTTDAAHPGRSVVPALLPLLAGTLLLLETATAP

SMILES: O=C1CCCc2c1[nH]c1ccc(CN3CCCCC3)cc21
IC50 [1]: > 80 µM (inactive)

IC50 [2]: 2.14 µM (active)
SMILES: COc1ccc2nc3oc(C(=O)N4CCN(c5cccc(Cl)c5)CC4)cc3cc2c1

SMILES: CCOC(=O)/C=C/C(=O)OCC(=O)NC(c1ccccc1)c1ccccc1
IC50 [3]: 3.28 µM (active)
EC50 [4]: 13.4 µM (active)
AC50 [5]: 5.14 µM (active)
AC50 [6]: > 70 µM (inactive)
AC50 [7]: 22 µM (active)

SMILES: CCOC(=O)c1cc2c(ccn2C)n1CC(=O)N(Cc1ccccc1)c1ccc(F)cc1
IC50 (Protein Rev): > 75.4 µM (not active)
IC50 [8]: > 59.6 µM (inactive)

SMILES: Cc1occc1C(=O)N/N=C/c1ccc(N(C)C)cc1
AC50 [9]: 26.4 µM (active)
AC50 [10]: 19.5 µM (active)

SMILES: O=C(Nc1sc2c(c1C(=O)O)CCCC2)c1cccs1
IC50 (Tumor necrosis factor): > 20 µM (inactive)
IC50 [11]: > 20 µM (inactive)
IC50 [12]: > 20 µM (inactive)
IC50 (HEK293): > 20 µM (inactive)

EC50 [14]: > 50 µM (not active)
Ki [15]: > 10 µM (inactive)
Ki [16]: 0.3 µM (active)
Ki [17]: > 10 µM (inactive)
Ki (D(3) dopamine receptor): > 10 µM (inactive)
Ki [18]: > 10 µM (inactive)
Ki [19]: > 10 µM (inactive)
Ki [20]: > 10 µM (inactive)
Ki [21]: > 10 µM (inactive)
IC50 [22]: 31.6 µM (active)
SMILES: CC(=O)c1ccc2c(c1)Nc1ccccc1S2
CC50 [13]: 18.5 µM (active)
CC50 (HT-29): > 20 µM (not active)

IC50 [23]: > 100 µM (not active)
IC50 [24]: 21.1 µM (active)
SMILES: O=C(NCCO)c1cc(-c2ccc(Cl)cc2Cl)n[nH]1
